Assay results published in patent US6448399B1, “Fused heteroaromatic glucokinase activators” (Hoffmann-La Roche Inc., priority 2000, dated 2002).

System: C57BL/6J mice
Test: Glucokinase activator in vivo screen (blood glucose after oral dosing)
Details: administered orally, 50 mg/kg, active = significant (p≦0.05) decrease in blood glucose vs vehicle at two consecutive time points
Method: Glucokinase Activator in vivo Screen Protocol
C57BL/6J mice are orally dosed via gavage with Glucokinase (GK) activator at 50 mg/kg body weight following a two hour fasting period. Blood glucose determinations are made five times during the six hour post-dose study period.
Mice (n=6) are weighed and fasted for a two hour period prior to oral treatment. GK activators are formulated at 6.76 mg/ml in Gelucire vehicle (Ethanol:Gelucire44/14:PEG400q.s. 4:66:30 v/w/v. Mice are dosed orally with 7.5 μL formulation per gram of body weight to equal a 50 mg/kg dose. Immediately prior to dosing, a pre dose (time zero) blood glucose reading is acquired by snipping off a small portion of the animals tail (˜1 mm) and collecting 15 μL blood into a heparinized capillary tube for analysis. Following GK activator administration, additional blood glucose readings are taken at 1, 2, 4, and 6 hours post dose from the same tail wound. Results are interpreted by comparing the mean blood glucose values of six vehicle treated mice with six GK activator treated mice over the six hour study duration.

SMILES	glucokinase activator in vivo activity
CS(=O)(=O)c1ccc([C@@H](CC2CCCC2)C(=O)Nc2nc3ccccc3s2)cc1Cl [Example 19, N-Benzothiazol-2-yl-2(R)-(3-chloro-4-methanesulfonyl-phenyl)-3-cyclopentyl-propionamide]	excellent glucokinase activator in vivo activity
CS(=O)(=O)c1ccc(C(CC2CCCC2)C(=O)Nc2ccc3ccccc3n2)cc1Cl (stereo not drawn) [Example 22, 2-(3-Chloro-4-methanesulfonyl-phenyl)-3-cyclopentyl-N-quinolin-2-yl-propionamide]	excellent glucokinase activator in vivo activity
CS(=O)(=O)c1ccc(C(CC2CCCC2)C(=O)Nc2nc3ccccc3[nH]2)cc1Cl (stereo not drawn) [Example 20, N-(1H-Benzoimidazol-2-yl)-2-(3-chloro-4-methanesulfonyl-phenyl)-3-cyclopentyl-propionamide]	excellent glucokinase activator in vivo activity
